{
  "source": "patent US20260038304A1",
  "about": "“METHOD AND SYSTEM FOR DETERMINING EFFICACY OF TREATMENT BY A PRE[…]” (priority 2023, published 2026)",
  "assay_type_in_all_cases": "in vivo",
  "key": {"[1]": {"test_system": "larval zebrafish", "test": "Ketanserin bath application with or without psilocybin, independent component analysis of swim patterns", "conditions": "Ketanserin 11.25 μM for 5 hours", "description": "The right panel of FIG. 4M depicts latent feature (e.g., independent component) analysis of swim patterns after the sham treatment, Ketanserin exposure and psilocybin pretreatment before Ketanserin exposure;\nKetanserin has acute anxiogenic effects in adult zebrafish and rodents.\nFor Ketanserin experiments (FIG. 4M), the inventors performed a bath application of Ketanserin (11.25 μM) for 5 hours before behavioral tests. Psilocybin (2.5 μM) was added to the solution 1 hour after the start of Ketanserin treatment for a total duration of 4 hours before behavioral tests. Ketanserin (Sigma, S006) was prepared as a 0.5 mg/mL stock solution in E3 medium. Stock solutions were stored at −80° C. for long-term storage, and in-use aliquots were stored at −20° C. The desired concentration of Ketanserin was achieved by adding the stock solution to the E3 medium in which the fish swim.\n(§1) For Independent Component Analysis (ICA) (FIGS. 2D, 3G, 4D, 4K and 4L), The inventors identified ICA weights and normalization factors in the dataset of 14,694 swimming episodes from N=22 fish for the small arena and N=20 fish for the large arena (FIG. 1) by using FastICA function in scikit-learn package (https://scikit-learn.org). The inventors subsequently applied the same ICA weights and normalization factors to other datasets. […]"}, "[2]": {"test_system": "larval zebrafish", "test": "Acute cold stress exposure (28° C. to 18° C., 5 minutes) after drug pretreatment, swim pattern analysis", "conditions": "for stress-induced increase in swimming distance: cold shock, fluoxetine 4.6 μM 24 hours before; for stress-induced shift along the ICA2 (IC2) axis, turning/escape behavior: psilocybin 2.5 μM, ketamine 30 μM, fluoxetine 4.6 μM", "from_the_text": "As known in the art, acute administration of psilocybin has anxiolytic effects in humans. The inventors have thus tested whether acute stress exposure causes changes in fish's swim patterns in our setup and whether psilocybin can prevent such stress-induced behavioral changes. Various environmental stressors have been tested in larval zebrafish that trigger cortisol increase, including hypertonic water, acids, mechanical disturbance, social isolation, and heating or cooling shock.\nAs shown in FIG. 4I-E, the inventors also tested the effect of hypertonic stress for comparison.\nThe behavioral effects of other antidepressants was investigated and compared with those of psilocybin. Initially, the effect of ketamine was tested. Ketamine is a fast-acting antidepressant that can also suppress stress-induced behavioral changes in zebrafish. Sub-anesthetic concentration (30 μM) were used and bath application were performed for 30 minutes before the cold shock (FIG. 5A).\nThe effect of fluoxetine was also tested in the cold shock paradigm, using a concentration of 4.6 μM from previous zebrafish studies, and the effect of bath application was examined for 24 hours before the cold shock (FIG. 5D). […] However, fluoxetine had mixed effects on body kinematics after stress exposure. […] These mixed effects may be due to the induction of distorted swim patterns by fluoxetine that were observed (FIG. 5F, FIG. S3C) but also may reflect its lack of acute anxiolytic effects in humans.\nThe inventors classified the effects of psilocybin, ketamine and fluoxetine based on two behavioral measures: changes in swimming distances (FIG. 5G) and the ICA analysis of body kinematics (FIG. 5H). In the first type of classification (FIG. 5G), the action of tested drugs was classified based solely on swimming distances. […] Anxiolytic effects were calculated based on how much the drugs could revert the increase of swimming distance induced by stress exposure. In the second type of classification (FIG. 5H), two dimensions identified by the ICA analysis of body kinematics were used. […] Anxiolytic effects were calculated based on how much the drugs could revert the changes along the IC2 axis induced by stress exposure.\nJust as osmotic changes to the water cause stress to the fish, changes in water temperature are also known to induce stress. Zebrafish's optimal environment is approximately 28° C., and so it has been shown that a short exposure of 5 minutes to 18° C. leads to increased cortisol levels and anxiety-like behaviors in larval zebrafish. Thus, the inventors utilized this established stress paradigm and exposed the fish to 18° C. E3 medium for 5 minutes. The inventors subsequently returned the fish to 28° C. E3 for a 5-minute recovery before testing (FIG. 4A). 18° C. E3 was achieved by mixing 4° C. E3 with 28° C. E3. Over the course of the 5-minute cold stimulus, the water temperature on average ranged from 18° C. to 20° C. The recovery in 28° C. E3 was done in an incubator, thus the temperature remained stable. Note that these procedures involve multiple occasions of transferring fish and replacing liquid around the fish, which themselves cause stress response due to mechanical disturbances. The effect of such procedural stress was present as the shifts of behavioral states along the IC2 axis in the data presented in FIGS. 4 and S4 compared to other datasets.\nas §1"}, "[3]": {"test_system": "larval zebrafish", "test": "Wide-field behavioral tracking of spontaneous exploration and visually driven swimming after drug bath pretreatment", "conditions": "for effects of pretreatment on swim patterns: fluoxetine 1 μM to 10 μM, fluvoxamine 2.5 μM to 25 μM, 24 hours incubation; for swim patterns and tail motions during visually driven behaviors: fluoxetine- and fluvoxamine-treated fish vs control, FIG. 3K; for spontaneous swimming distance: unstressed fish, ketamine 30 μM bath 30 minutes, fluoxetine 4.6 μM bath 24 hours", "from_the_text": "Reference is now made to FIG. 1A, which is a schematic diagram depicting an experimental setup, which may be used for evaluating behavior of an animal, according to some embodiments. […] This setup tracks the precise body kinematics of a single fish in an environment that is large (e.g., 90 mm) compared to the length of larval zebrafish (˜4 mm) at a high-resolution (e.g., higher than 1100×1100 pixels) and high-speed (e.g., 290 Hz). Data analysis pipelines further processed the images to identify the fish loci and body postures by using a deep neural network.\nDifferent swim episodes can be visually separated in the depicted trajectories. Fish behavior was recorded at infrared wavelengths for 15 minutes while visual gratings stopped for 10 seconds (spontaneous swimming) and moved for 10 seconds (visually driven behavior) in cycles.\nThe inventors have used a custom-built zebrafish tracking system consisting of a high-speed camera, a macro lens and associated locking sleeve, an infrared filter for the lens, 880 nm LED illumination, a 100 mm×120 mm cold mirror, and a compact projector.\nThe inventors have tested the behavior of AB fish at the age of 5 Days Post Fertilization (DPF) on a chemical watch glass (125 mm) whose bottom surface was manually coated with a white spray. The inventors have imaged an area that spanned 90 mm (corresponding to 1100-1200 pixels) for each dimension with a resolution of […] per pixel at 290 Hz. […] Behavioral data presented in this study were acquired using at least three batches, as depicted in FIGS. 1, 2, 3, 4, 1SD, 2H, 2I, 2J, 3L, 4S, for at least two batches (FIG. 3J).\nUntil 5 DPF, both control and drug-exposed embryos were reared in 90-mm Petri dishes and maintained in a light-cycled incubator at 28.0° C. Media was changed every other day and no food was given before behavioral experiments. All behavioral experiments in this study were performed in E3 medium after washing out pretreated drugs.\nPsilocybin solution (Sigma, P-097) was purchased as a stock solution concentration of 1.0 mg/mL in acetonitrile:water (1:1), ampule of 1 mL (3.52 mM). Stock solutions were stored at −80° C. for long-term storage, and in-use aliquots were stored at −20° C. Aliquots were thawed and vortexed immediately before use. Psilocybin was administered by incubating the fish in the psilocybin solution in 6-well plates. Desired concentrations of psilocybin were achieved by adding the stock solution to the E3 medium in which the fish swim. Concentrations ranging from 1 μM to 50 μM were tested in order to optimize the dosage.\nThe inventors determined that a dose of 2.5 μM for 4 h had the largest effect on spontaneous swimming compared to controls (refer to FIGS. 3E and 3J). Following the 4-hour exposure, fish were double washed in E3 medium, and remained in E3 medium until their behavior was examined. Behaviors were recorded for 15 minutes per fish.\nFluoxetine hydrochloride (Sigma, F918) was prepared as a 1 mg/ml (2.9 mM) stock solution in a conditioned E3 medium for zebrafish embryos. Fluvoxamine (Sigma, F2802) was prepared as a 10 mg/ml (23 mM) stock solution in a conditioned E3 medium. Desired Fluoxetine and Fluvoxamine concentrations were achieved by diluting the stock solution with conditioned E3 medium and storing the aliquots at −20° C. At 5 DPF, the fish were incubated as follows: Fluoxetine and Fluvoxamine were administered by incubating the fish in the solutions in 6-well plates. Desired concentrations of the two types of SSRIs were achieved by adding the stock solutions to the E3 medium in which the fish swim. Concentrations ranging from 1 μM to 10 μM for Fluoxetine and 2.5 μM to 25 μM for Fluvoxamine were tested in order to optimize the dosage. After 24 hours of incubation the fish, after being triple washed, were transferred to a new Petri dish, similar to the one they dwelled in before, containing only E3 medium. Behaviors were recorded at 6 DPF for 15 minutes per fish. […]"}, "[4]": {"conditions": "cold stress, classification of psilocybin, ketamine and fluoxetine"}},
  "note": "Where a name gives a salt, the structure may show the parent alone.",
  "data": [
    {"compound": "O=C(c1ccc(F)cc1)C1CCN(CCn2c(=O)[nH]c3ccccc3c2=O)CC1", "note": "[Ketanserin]", "values": [
      {"measurement": "shift of behavioral states by bath application", "setting": "[1]", "result": "shifted behavioral states similarly to both cold and hypertonic stressors"}
    ]},
    {"compound": "CNCCC(Oc1ccc(C(F)(F)F)cc1)c1ccccc1", "note": "(centres unmarked) [fluoxetine, Fluoxetine hydrochloride]", "values": [
      {"measurement": "stress-induced increase in swimming distance", "setting": "[2]; ketamine 30 μM 30 minutes", "result": "reversed"},
      {"measurement": "reversal of the stress-induced increases in swim distances (FIG. 5G)", "setting": "[2]; [4]", "result": "only occurred with ketamine and fluoxetine"},
      {"measurement": "stress-induced shift along the ICA2 (IC2) axis, turning/escape behavior", "setting": "[2]; cold stress", "result": "partially reversed and partially exacerbated"},
      {"measurement": "effects of pretreatment on swim patterns", "setting": "[3]", "result": "suppressive effects"},
      {"measurement": "swim patterns and tail motions during visually driven behaviors", "setting": "[3]", "result": "noticeable distortions in the swim patterns and low-frequency tail motions"},
      {"measurement": "stimulatory/suppressive effects on basal behavior", "setting": "[3]; unstressed fish vs control, swimming distance and IC1 axis classifications consistent (FIG. 5G, 5H)", "result": "suppressive"},
      {"measurement": "spontaneous swimming distance", "setting": "[3]", "result": "did not increase"}
    ]},
    {"compound": "COCCCC/C(=N\\OCCN)c1ccc(C(F)(F)F)cc1", "note": "[fluvoxamine, Fluvoxamine]", "values": [
      {"measurement": "effects of pretreatment on swim patterns", "setting": "[3]", "result": "suppressive effects"},
      {"measurement": "swim patterns and tail motions during visually driven behaviors", "setting": "[3]", "result": "decrease amplitude of tail motions"}
    ]},
    {"compound": "CNC1(c2ccccc2Cl)CCCCC1=O", "note": "(centres unmarked) [ketamine]", "values": [
      {"measurement": "stress-induced increase in swimming distance", "setting": "[2]; ketamine 30 μM 30 minutes", "result": "reversed"},
      {"measurement": "reversal of the stress-induced changes in body kinematics (FIG. 5H)", "setting": "[2]; cold stress, IC2 axis, classification of psilocybin, ketamine and fluoxetine", "result": "only occurred with ketamine and psilocybin"},
      {"measurement": "reversal of the stress-induced increases in swim distances (FIG. 5G)", "setting": "[2]; [4]", "result": "only occurred with ketamine and fluoxetine"},
      {"measurement": "stress-induced changes in swim patterns (zig-zag vs straight) during visually driven swimming", "setting": "[2]; cold stress, psilocybin 2.5 μM pretreatment, ketamine 30 μM 30 minutes", "result": "prevented the emergence of zig-zag swim patterns after cold shock and recovered straight swim patterns"},
      {"measurement": "stress-induced shift along the ICA2 (IC2) axis, turning/escape behavior", "setting": "[2]; cold stress", "result": "significantly reversed"},
      {"measurement": "spontaneous swimming distance", "setting": "[3]", "result": "did not increase"}
    ]},
    {"compound": "CN(C)CCc1c[nH]c2cccc(OP(=O)(O)O)c12", "note": "[psilocybin, Psilocybin]", "values": [
      {"measurement": "most effective concentration for enhancing spontaneous exploration", "setting": "[3]; tested 1 μM to 50 μM, 30 minutes to 24 hours, optimal duration 4 h", "result": 2.5, "unit": "µM"}
    ]}
  ]
}
